Reference: US20250179126A1, “A NOVEL PEPTIDE FROM A PHOTOSYNTHETIC BACERIUM DIRECTLY TARGETS MITOCHONDRIA TO TRIGGER APOPTOSIS IN ADVANCED PROSTATE CANCER CELLS” (priority 2022, published 2025)
“Also recorded” adds a separate entry of the source.

What was measured:
Format in all cases: cell-based, human
[1] = system: LNCaP prostate cancer cells; test: MTT cell viability assay, LNCaP prostate cancer cells
[2] = system: MDA-MB-231 cells; test: Aldolase A secretion and expression in MDA-MB-231 cells treated with purified azurin; conditions: MDA-MB-231, purified azurin 100 nM, 10 μM, 1 mM, 30 min
Procedure: FIG. 18A-18G: Induction of aldolase A secretion by host cells in the presence of P. aeruginosa. 18A. […] Aldolase secretion varied between the co-cultures with cancer and normal cells. […] 18B Correlation between the aldolase A and azurin levels in co-cultures of P. aeruginosa with cancer or normal cells. […] Secretion of aldolase into the culture supernatant was assessed by western blot analysis. 18D P. aeruginosa (OD=0.3) was treated with purified aldolase A protein at concentrations of 1 nM, 10 nM, 100 nM, and 1 μM for 30 min. […] MDA-MB-231 (18E) and Mel-2 (18F) cells were treated with purified azurin protein at concentrations of 100 nM, 10 μM, and 1 mM for 30 min. […] 18G Aldolase A secretion in the presence of P. aeruginosa is distance-dependent. […]
(§1) Aldolase A gene expression in MDA-MB-231 (black bars) and Mel-2 (white bars) cells was determined by RT-PCR (22A). […] 22B: Intracellular levels of aldolase A were assessed by western blot analysis with an anti-aldolase A antibody. […]
(§2) Western blotting: After running the NuPAGE, proteins were transferred to PVDF membranes (BioRad Laboratories Inc, Hercules, CA) which were blocked in SuperBlock (T20 TBS buffer, Thermo Fisher) for one hour. […] The signal was detected using enhanced chemiluminescence (ECL, Thermo Fisher Scientific). Quantitative analysis of the bands was performed with a computer-assisted imaging densitometer (UN-SCAN-IT gel version 5.1). […]

[3] = system: Mel-2 cells; test: Aldolase A secretion and expression in Mel-2 cells treated with purified azurin; conditions: Mel-2, purified azurin 100 nM, 10 μM, 1 mM, 30 min
Procedure: FIG. 18A-18G: Induction of aldolase A secretion by host cells in the presence of P. aeruginosa. 18A. Human host cells (cancer and normal) and P. aeruginosa were co-incubated for 30 min at a concentration of 500,000 human cells/ml with P. aeruginosa at OD=0.3. Aldolase secretion varied between the co-cultures with cancer and normal cells. […] 18B Correlation between the aldolase A and azurin levels in co-cultures of P. aeruginosa with cancer or normal cells. 18C Cancer cells (Mel-2 and MDA-MB-231) and P. aeruginosa (WT and azunull mutant) were co-incubated for 30 min at a concentration of 500,000 human cells/ml with P. aeruginosa at OD=0.3. Secretion of aldolase into the culture supernatant was assessed by western blot analysis. […]
as §1, §2

Substance	cytotoxic effect (MTT cell viability) ([1]; LNCaP (p53 wild-type, AR+), 24-72 hr, paclitaxel 1 nM)	inhibition rate ([1]; LNCaP, 100 μM for 72 hr) [%]	aldolase A gene expression and intracellular levels [2]	aldolase A secretion into culture medium (western blot) [2]	aldolase A gene expression and intracellular levels [3]	aldolase A secretion into culture medium (western blot) [3]
LVN GGD DVA AAV NTA AQN NAD ALF VPPP (LVNGGDDVAAAVNTAAQNNADALFVPPP) [aurB]	significantly induced dose-dependent cytotoxic effects; also recorded: more sensitive than the normal prostate cell line	~50				
azurin: 14 kDa periplasmic copper protein of 128 amino acids from P. aeruginosa; purified recombinant			without increasing gene expression or intracellular levels of aldolase A	secreted a considerable amount of human aldolase A	without increasing gene expression or intracellular levels of aldolase A	secreted a considerable amount of human aldolase A
